Reference: patent US20200237759A1, “DOSAGE REGIME AND METHOD FOR TREATING PULMONARY ARTERIAL HYPERTENSION” (Altavant Sciences GmbH, priority 2019, published 2020)

Test: Thermodynamic stability of crystalline forms
Format: physicochemical
Conditions: compared to Form 1

Question: For CCOC(=O)[C@@H]1CC2(CCN(c3cc(O[C@H](c4ccc(Cl)cc4-c4ccccc4)C(F)(F)F)nc(N)n3)CC2)CN1 [Form 3, (S)-ethyl 8-(2-amino-6-((R)-1-(5-chloro-[1,1′-biphenyl]-2-yl)-2,2,2-trifluoroethoxy)pyrimidin-4-yl)-2,8-diazaspiro[4.5]decane-3-carboxylate], which thermodynamic stability is on record?
Answer: substantially greater thermodynamic stability compared to Form 1
